SMILES strings stand for the structures. pIC50: −log10 of the molar value.

For one assay, the target named is CDK2/Cyclin E1 (Homo sapiens, UniProt P24941). In words: ADP-Glo Luminescent Kinase Assay (CDK2/E1-37C). In kind it is biochemical. The following applies: 0.18 nM CDK2/Cyclin E1, 100 μM ATP, Histone H1, 37° C.; read-out: ADPGLO (CDK2/E1-37C): IC50. The gist of the method:
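Activated CDK2/Cyclin E1 (0.18 nM final) preincubated with compound 60 min at 37 °C, then reacted with 100 μM ATP and Histone H1 ([…]) for 90 min at 37 °C in HEPES pH 7.5 buffer. ADP-Glo luminescence normalized to % activity; IC50 from four-parameter fit.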
On the technique in general: In ADP-Glo the light output rises with the ADP produced.

The next assay relates to Kuramochi cells RB-WT. In words: IncuCyte Kuramochi cell proliferation assay, RB-WT. In kind it is cell-based. The note with it: 72 hours, cell count. The essentials:
(§1)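 mApple-H2B-labelled Kuramochi cells were treated with a 10-point, half-log series (top 20 µM) and imaged at 0 and 72 h. Fluorescent nuclei were counted, and the 0–72 h fold change was normalized to DMSO wells. GI50 came from dose-response fits.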

Another assay concerns Kuramochi cells RB-KO. In words: IncuCyte Kuramochi cell proliferation assay, RB-KO. The class given is cell-based. The note with it: 72 hours, cell count, batch mean. The gist of the method: as §1

In the case of `O=C(O)c1c(COCC2CN(c3ncnc4ncsc34)CC23CN(C(=O)C2(C(F)(F)F)CC2)C3)cccc1C1CCC(F)(F)CC1` (stereo not drawn) [I′-64, 2-(4,4-difluorocyclohexyl)-6-(((6-(thiazolo[4,5-d]pyrimidin-7-yl)-2-(1-(trifluoromethyl)cyclopropane-1-carbonyl)-2,6-diazaspiro[3.4]octan-8-yl)methoxy)methyl)benzoic acid], the pIC50 was at least 6.30 on CDK2/Cyclin E1, 5.30 to 6.30 in the assay on Kuramochi cells RB-WT and 5.30 to 6.30 in the assay with Kuramochi cells RB-KO.

On to `CN(C)S(=O)(=O)NC(=O)c1c(COC[C@@H]2CN(C(=O)c3cnn(Cc4ccc(F)cc4)c3)CC23CN(C(=O)[C@H]2CC2(C)C)C3)cccc1C1CCC(F)(F)CC1` [I′-65, 2-(4,4-difluorocyclohexyl)-6-((((S)-2-((S)-2,2-dimethylcyclopropane-1-carbonyl)-6-(1-(4-fluorobenzyl)-1H-pyrazole-4-carbonyl)-2,6-diazaspiro[3.4]octan-8-yl)methoxy)methyl)-N—(N,N-dimethylsulfamoyl)benzamide], for which the pIC50 is at least 6.30 on CDK2/Cyclin E1, below 5.00 in the assay with Kuramochi cells RB-WT and below 5.00 in the assay on Kuramochi cells RB-KO.

Turning to `CC(C)(C(=O)N1CC2(CN(C(=O)c3cnn(Cc4ccc(F)cc4)c3)C[C@H]2COCc2cccc(-c3ccc(C(F)(F)F)s3)c2C(=O)O)C1)C(F)(F)F` [I′-66, (S)-2-(((6-(1-(4-fluorobenzyl)-1H-pyrazole-4-carbonyl)-2-(3,3,3-trifluoro-2,2-dimethylpropanoyl)-2,6-diazaspiro[3.4]octan-8-yl)methoxy)methyl)-6-(5-(trifluoromethyl)thiophen-2-yl)benzoic acid], the pIC50 is at least 6.30 at CDK2/Cyclin E1, at least 6.30 in the assay with Kuramochi cells RB-WT and below 5.00 in the assay on Kuramochi cells RB-KO.

In the case of `COc1ccc(C2CCC(F)(F)CC2)c(C(=O)O)c1COCC1CN(C(=O)c2cnn(Cc3ccc(F)cc3)c2)CC12CN(C(=O)C1(C(F)(F)F)CC1)C2` (stereo not drawn) [I′-67], the pIC50 at CDK2/Cyclin E1 is at least 6.30; in the assay with Kuramochi cells RB-WT, below 5.00; in the assay on Kuramochi cells RB-KO it was below 5.00.

For `CC(C)(C(=O)N1CC2(CN(C(=O)c3cnn(Cc4ccc(F)cc4)c3)CC2COCc2cc(F)cc(C3CCC(F)(F)CC3)c2C(=O)O)C1)C(F)(F)F` (stereo not drawn) [I′-68, 2-(4,4-difluorocyclohexyl)-4-fluoro-6-(((6-(1-(4-fluorobenzyl)-1H-pyrazole-4-carbonyl)-2-(3,3,3-trifluoro-2,2-dimethylpropanoyl)-2,6-diazaspiro[3.4]octan-8-yl)methoxy)methyl)benzoic acid], the values for the pIC50 at CDK2/Cyclin E1, in the assay on Kuramochi cells RB-WT and in the assay on Kuramochi cells RB-KO were at least 6.30, 5.00 to 5.30 and below 5.00, respectively.

For the compound `CC1(C)C[C@@H]1C(=O)N1CC2(CN(C(=O)c3cnn(Cc4ccc(F)cc4)c3)CC2/C=C\Cc2cccc(C3CCC(F)(F)CC3)c2C(=O)O)C1` (stereo partly drawn) [I′-69], the pIC50 is below 5.00 on CDK2/Cyclin E1, 5.00 to 5.30 in the assay on Kuramochi cells RB-WT and below 5.00 with Kuramochi cells RB-KO.

Take `CC1(C)C[C@@H]1C(=O)N1CC2(CN(C(=O)c3cnn(Cc4ccc(F)cc4)c3)CC2COCc2cccc(C3CCC(F)(F)CC3)c2-c2nn[nH]n2)C1` (stereo partly drawn) [I′-70, (8-(((3-(4,4-difluorocyclohexyl)-2-(2H-tetrazol-5-yl)benzyl)oxy)methyl)-2-((S)-2,2-dimethylcyclopropane-1-carbonyl)-2,6-diazaspiro[3.4]octan-6-yl)(1-(4-fluorobenzyl)-1H-pyrazol-4-yl)methanone]: the pIC50 at CDK2/Cyclin E1 is at least 6.30; in the assay with Kuramochi cells RB-WT, below 5.00; with Kuramochi cells RB-KO, below 5.00.

As to `CC(C)(C(=O)N1CC2(C1)CN(c1cc(F)c(F)c3ncsc13)C[C@H]2COCc1cccc(C2CCC(F)(F)CC2)c1C(=O)O)C(F)(F)F` [I′-71, (S)-2-(((6-(4,5-difluorobenzo[d]thiazol-7-yl)-2-(3,3,3-trifluoro-2,2-dimethylpropanoyl)-2,6-diazaspiro[3.4]octan-8-yl)methoxy)methyl)-6-(4,4-difluorocyclohexyl)benzoic acid], the pIC50 on CDK2/Cyclin E1 is at least 6.30; with Kuramochi cells RB-WT, 5.00 to 5.30; in the assay on Kuramochi cells RB-KO, below 5.00.

In the case of `CC1(C)C[C@@H]1C(=O)N1CC2(C1)CN(c1cc(F)c(F)c3ncsc13)C[C@H]2COCc1cccc(C2CCC(F)(F)CC2)c1C(=O)O` [I′-72, 2-((((S)-6-(4,5-difluorobenzo[d]thiazol-7-yl)-2-((S)-2,2-dimethylcyclopropane-1-carbonyl)-2,6-diazaspiro[3.4]octan-8-yl)methoxy)methyl)-6-(4,4-difluorocyclohexyl)benzoic acid], the figures for the pIC50 on CDK2/Cyclin E1, in the assay with Kuramochi cells RB-WT and in the assay with Kuramochi cells RB-KO were at least 6.30, at least 6.30 and below 5.00, respectively.

Regarding `O=C(O)c1c(COCC2CN(C(=O)c3cnn(Cc4ccc(F)cc4)c3)CC23CN(C(=O)C2(C(F)(F)F)CC2)C3)cccc1-c1ccc(Cl)cc1F` (stereo not drawn) [I′-73], the pIC50 at CDK2/Cyclin E1 was at least 6.30; in the assay on Kuramochi cells RB-WT, at least 6.30; in the assay with Kuramochi cells RB-KO it was below 5.00.

`O=C(O)c1ccccc1Cn1cc(C(=O)N2CC(COCc3cccc(C4CCC(C(F)(F)F)CC4)c3OC(F)F)C3(C2)CN(C(=O)C2(C(F)(F)F)CC2)C3)cn1` (stereo not drawn) [I′-74, 2-((4-(8-(((2-(difluoromethoxy)-3-(4-(trifluoromethyl)cyclohexyl)benzyl)oxy)methyl)-2-(1-(trifluoromethyl)cyclopropane-1-carbonyl)-2,6-diazaspiro[3.4]octane-6-carbonyl)-1H-pyrazol-1-yl)methyl)benzoic acid]: the figures for the pIC50 on CDK2/Cyclin E1, in the assay on Kuramochi cells RB-WT and in the assay on Kuramochi cells RB-KO were at least 6.30, below 5.00 and below 5.00, respectively.

As for `CC1(C)C[C@@H]1C(=O)N1CC2(CN(C(=O)c3cnn(Cc4ccc(F)cc4)c3)CC2COCc2cccc(C3CCC(F)(F)CC3)c2C#N)C1` (stereo partly drawn) [I′-75, 2-(4,4-difluorocyclohexyl)-6-(((2-((S)-2,2-dimethylcyclopropane-1-carbonyl)-6-(1-(4-fluorobenzyl)-1H-pyrazole-4-carbonyl)-2,6-diazaspiro[3.4]octan-8-yl)methoxy)methyl)benzonitrile], the pIC50 at CDK2/Cyclin E1 was at least 6.30; with Kuramochi cells RB-WT, below 5.00; in the assay with Kuramochi cells RB-KO, below 5.00.

As to `CC(C)(C(=O)N1CC2(CN(C(=O)c3cnn(Cc4ccc(F)cc4)c3)CC2COCc2cccc(C3CCC(F)(F)CC3)c2C(=O)O)C1)C(F)(F)F` (stereo not drawn) [I′-76], the pIC50 on CDK2/Cyclin E1 is at least 6.30; in the assay on Kuramochi cells RB-WT, 5.30 to 6.30; in the assay with Kuramochi cells RB-KO it was 5.00 to 5.30.

As to `Cc1cc(F)ccc1-c1cccc(COCC2CN(C(=O)c3cnn(Cc4ccc(F)cc4)c3)CC23CN(C(=O)C2(C(F)(F)F)CC2)C3)c1C(=O)O` (stereo not drawn) [I′-77, 4′-fluoro-3-(((6-(1-(4-fluorobenzyl)-1H-pyrazole-4-carbonyl)-2-(1-(trifluoromethyl)cyclopropane-1-carbonyl)-2,6-diazaspiro[3.4]octan-8-yl)methoxy)methyl)-2′-methyl-[1,1′-biphenyl]-2-carboxylic acid], the pIC50 is at least 6.30 on CDK2/Cyclin E1, 5.00 to 5.30 in the assay on Kuramochi cells RB-WT and below 5.00 in the assay with Kuramochi cells RB-KO.

As to `CC1(C)C[C@@H]1C(=O)N1CC2(CN(C(=O)c3cnn(Cc4ccc(F)cc4)c3)CC2C#CCc2cccc(C3CCC(F)(F)CC3)c2C(=O)O)C1` (stereo partly drawn) [I′-78], the pIC50 on CDK2/Cyclin E1, in the assay on Kuramochi cells RB-WT and with Kuramochi cells RB-KO was below 5.00 each time.

(Values after patent US20260034123A1 (Cedilla Therapeutics, Inc., priority 2022, published 2026).)
